Experimental data taken from US11364390B2, “Apparatus for treating pathological cells” (priority 2017, dated 2022).

How the values were obtained:
[1] = tested on: nephroblastoma cells G401; test: Cell viability assay (live cell count) on cultured nephroblastoma cells G401; assay type: cell-based; conditions: cisplatin 500 nM once a day, combination with electromagnetic field 2 hours a day, FIG. 5
Procedure: (§1) Cell Lines and Methods of Culture: Nephroblastoma cells G401, adherent cells, were cultured in McCoy's medium with 10% fetal bovine serum at 37° C. in an incubator containing 5% carbon dioxide and saturated water vapor. Cell viability assay: G141 cells were seeded into 6-well plates at a density of 1×10^5 cells/well. […] Statistical Analysis: Each irradiation conditions repeated three times, each three holes, the results were mean±standard error, the results do T test, with P<0.05 as a significant difference in indicators.

[2] = tested on: neuroblastoma cells CHLA255; test: Cell viability assay (live cell count) on cultured neuroblastoma cells CHLA255; assay type: cell-based; conditions: cisplatin 500 nM once a day, combination with electromagnetic field 2 hours a day, FIG. 6
Procedure: as §1, with “Neuroblastoma cells, CHLA255, which are” for “Nephroblastoma cells G401,”, “are grown in 37° C. incubator with 10% fetal calf serum” for “were cultured”, “medium” for “medium with 10% fetal bovine serum at 37° C. in an incubator”, “Neuroblastoma cells, CHLA255,” for “G141 cells”, “in” for “into”

Nephroblastoma G401 = test: Tumor growth inhibition in vivo, G401 nephroblastoma model in nude mice; conditions: cisplatin 20 mg/kg three times a week, irradiation about 90 minutes a day, P<0.05, FIG. 9
Excerpt: Example 7: G401 nephroblastoma model was established in nude mice and the animals were randomly divided into 4 groups with 8 mice in each group. […] Tumor models were established: Male nude mice were infants aged 3-4 weeks old. Nephroblastoma G401 was inoculated into the axilla and the number was 5×10^6/volume. The volume was 200 microliters. After one week of inoculation, the tumor could be touched. The animals were randomized groups, control group, irradiation group, cisplatin group, combined groups, treated separately. […] The control animals were placed in the animals irradiated with electromagnetic field-free coils for 90 minutes every day, and injected intraperitoneally with the same volume of physiology Saline; all animals were sacrificed 3 days after the neck, the eyeball to take whole blood, EDTA anticoagulant, after centrifugation to take the biochemical indicators of blood plasma, remove underarm growth tumor, weighed tumor weight, tissue cryopreservation. Statistical analysis: Each group of 8 animals, the results were mean±standard deviation, the results of T test, P<0.05 as a significant difference in indicators.

`N.N.[Cl][Pt][Cl]` [cisplatin] was tested, and the cell inhibition rate [1] was “increase”, the “cell proliferation (number of cells)” value [1] was “slow proliferation” and the cell inhibition rate [2] was “increase”. The “cell proliferation (number of cells)” value [2] was “slow proliferation” and the “tumor weight compared with the control group” value (Nephroblastoma G401) was “no significant difference”.
